The first assay concerns the target T1, PD-1/PD-L1 (Homo sapiens, UniProt Q9NZQ7).
T1 construct: made in house; host or cells: HEK293T
The experiment in a line: PD-1/PD-L1 Homogenous Time-Resolved Fluorescence (HTRF) binding assay. As to conditions: PD-L1-His 10 nM, PD-1-Ig 20 nM; numeric IC50; read-out: Range or IC50. In a few lines: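 Binding measured in dPBS with 0.1% BSA and 0.05% Tween-20, detected by HTRF with europium cryptate anti-Ig (1 nM final) and APC anti-His (20 nM final) added over the binding reaction. Counter-assays used human PD-1-Ig/PD-L2-His (20 and 5 nM) and CD80-His/PD-L1-Ig (100 and 10 nM).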
A general note: TR-FRET usually uses a lanthanide donor and a delayed reading to cut background.
T1 sequence (Q9NZQ7 with tags, fused parts or gaps): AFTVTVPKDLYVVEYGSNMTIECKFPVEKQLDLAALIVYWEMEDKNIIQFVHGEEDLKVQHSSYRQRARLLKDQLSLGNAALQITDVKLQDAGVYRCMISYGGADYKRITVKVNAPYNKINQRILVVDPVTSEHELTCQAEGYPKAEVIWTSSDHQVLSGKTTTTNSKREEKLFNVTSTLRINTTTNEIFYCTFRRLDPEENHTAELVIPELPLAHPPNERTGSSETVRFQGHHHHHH
As to `CC(=O)NC1CCN(CCCOc2cccc(-c3cccc(COc4cc(O)c(CO)cc4Cl)c3C)c2Cl)C1` (stereo not shown) [Example 2020, N-(1-(3-((2-chloro-3′-((2-chloro-5-hydroxy-4-(hydroxymethyl)phenoxy)methyl)-2′-methyl-[1,1′-biphenyl]-3-yl)oxy)propyl)pyrrolidin-3-yl)acetamide], the IC50 (usually the concentration that gives 50% inhibition) is 63 nM.

The assay is the same for the next values; noted with them: PD-L1-His 10 nM, PD-1-Ig 20 nM; value given as range class; read-out: Range or IC50.
In the case of `Cc1c(COc2cc(OCc3cncc(C#N)c3)c(CNCCc3ccncc3)cc2Cl)cccc1-c1cccc(OCCCNCCc2ccncc2)c1Cl` [Example 2010, 5-((4-chloro-5-((2′-chloro-2-methyl-3′-(3-((2-(pyridin-4-yl)ethyl)amino)propoxy)-[1,1′-biphenyl]-3-yl)methoxy)-2-(((2-(pyridin-4-yl)ethyl)amino)methyl)phenoxy)methyl)nicotinonitrile], the IC50 lay within 0.21 to 10 nM.

Turning to `Cc1c(COc2cc(OCc3cncc(C#N)c3)c(CN3CCN(CCO)CC3)cc2Cl)cccc1-c1cccc(OCCCN2CCN(CCO)CC2)c1Cl` [Example 2011, 5-((4-chloro-5-((2′-chloro-3′-(3-(4-(2-hydroxyethyl)piperazin-1-yl)propoxy)-2-methyl-[1,1′-biphenyl]-3-yl)methoxy)-2-((4-(2-hydroxyethyl)piperazin-1-yl)methyl)phenoxy)methyl)nicotinonitrile], the IC50 lay within 0.21 to 10 nM.

`Cc1c(COc2cc(OCc3cncc(C#N)c3)c(CN[C@](C)(CO)C(=O)O)cc2Cl)cccc1-c1cccc(OCCCN2CC(N(C)C)C2)c1Cl` [Example 2013, (R)-2-((5-chloro-4-((2′-chloro-3′-(3-(3-(dimethylamino)azetidin-1-yl)propoxy)-2-methyl-[1,1′-biphenyl]-3-yl)methoxy)-2-((5-cyanopyridin-3-yl)methoxy)benzyl)amino)-3-hydroxy-2-methylpropanoic Acid]: the IC50 lay in the range of 0.21 to 10 nM.

Consider `Cc1c(COc2cc(O)c(CO)cc2Cl)cccc1-c1cccc(OCCCN2CC(N(C)C)C2)c1Cl` [Example 2014, 4-chloro-5-((2′-chloro-3′-(3-(3-(dimethylamino)azetidin-1-yl)propoxy)-2-methyl-[1,1′-biphenyl]-3-yl)methoxy)-2-(hydroxymethyl)phenol], for which the IC50 is 10 to 100 nM.

Take `Cc1c(COc2cc(OCc3cncc(C#N)c3)c(CO)cc2Cl)cccc1-c1cccc(OCCCN2CC(N(C)C)C2)c1Cl` [Example 2015, 5-((4-chloro-5-((2′-chloro-3′-(3-(3-(dimethylamino)azetidin-1-yl)propoxy)-2-methyl-[1,1′-biphenyl]-3-yl)methoxy)-2-(hydroxymethyl)phenoxy)methyl)nicotinonitrile]: the IC50 was 0.21 to 10 nM.

As to `Cc1c(COc2cc(OCc3cncc(C#N)c3)c(CN[C@](C)(CO)C(=O)O)cc2Cl)cccc1-c1cccc(OCCCN2CCCCC2)c1Cl` [Example 2016, (R)-2-((5-chloro-4-((2′-chloro-2-methyl-3′-(3-(piperidin-1-yl)propoxy)-[1,1′-biphenyl]-3-yl)methoxy)-2-((5-cyanopyridin-3-yl)methoxy)benzyl)amino)-3-hydroxy-2-methylpropanoic Acid], the IC50 was 0.21 to 10 nM.

Consider `Cc1c(COc2cc(O)c(CO)cc2Cl)cccc1-c1cccc(OCCCN2CCCCC2)c1Cl` [Example 2017, 4-chloro-5-((2′-chloro-2-methyl-3′-(3-(piperidin-1-yl)propoxy)-[1,1′-biphenyl]-3-yl)methoxy)-2-(hydroxymethyl)phenol], for which the IC50 fell in the range of 10 to 100 nM.

Turning to `Cc1c(COc2cc(OCc3cncc(C#N)c3)c(CO)cc2Cl)cccc1-c1cccc(OCCCN2CCCCC2)c1Cl` [Example 2018, 5-((4-chloro-5-((2′-chloro-2-methyl-3′-(3-(piperidin-1-yl)propoxy)-[1,1′-biphenyl]-3-yl)methoxy)-2-(hydroxymethyl)phenoxy)methyl)nicotinonitrile], the IC50 lay in the range of 0.21 to 10 nM.

Turning to `CC(=O)NC1CCN(CCCOc2cccc(-c3cccc(COc4cc(OCc5cncc(C#N)c5)c(CN[C@](C)(CO)C(=O)O)cc4Cl)c3C)c2Cl)C1` (stereo partly drawn) [Example 2019, (2R)-2-((4-((3′-(3-(3-acetamidopyrrolidin-1-yl)propoxy)-2′-chloro-2-methyl-[1,1′-biphenyl]-3-yl)methoxy)-5-chloro-2-((5-cyanopyridin-3-yl)methoxy)benzyl)amino)-3-hydroxy-2-methylpropanoic Acid], the IC50 fell in the range of 0.21 to 10 nM.

In the case of `CC(=O)NC1CCN(CCCOc2cccc(-c3cccc(COc4cc(OCc5cncc(C#N)c5)c(CO)cc4Cl)c3C)c2Cl)C1` (stereo not shown) [Example 2021, N-(1-(3-((2-chloro-3′-((2-chloro-5-((5-cyanopyridin-3-yl)methoxy)-4-(hydroxymethyl)phenoxy)methyl)-2′-methyl-[1,1′-biphenyl]-3-yl)oxy)propyl)pyrrolidin-3-yl)acetamide], the IC50 lay in the range of 0.21 to 10 nM.

In the case of `CC(=O)N[C@@H]1CCN(CCCOc2cccc(-c3cccc(COc4cc(OCc5cncc(C#N)c5)c(CN[C@](C)(CO)C(=O)O)cc4Cl)c3C)c2Cl)C1` [Example 2022, (R)-2-((4-((3′-(3-((R)-3-acetamidopyrrolidin-1-yl)propoxy)-2′-chloro-2-methyl-[1,1′-biphenyl]-3-yl)methoxy)-5-chloro-2-((5-cyanopyridin-3-yl)methoxy)benzyl)amino)-3-hydroxy-2-methylpropanoic Acid], the IC50 was in the range of 0.21 to 10 nM.

With `Cc1c(COc2cc(OCc3cncc(C#N)c3)c(CN[C@](C)(CO)C(=O)O)cc2Cl)cccc1-c1cccc(OCCCN[C@](C)(CO)C(=O)O)c1Cl` [Example 2023, (R)-2-((3-((3′-((4-((((R)-2-carboxy-1-hydroxypropan-2-yl)amino)methyl)-2-chloro-5-((5-cyanopyridin-3-yl)methoxy)phenoxy)methyl)-2-chloro-2′-methyl-[1,1′-biphenyl]-3-yl)oxy)propyl)amino)-3-hydroxy-2-methylpropanoic Acid], the IC50 was 0.21 to 10 nM.

As for `Cc1c(COc2cc(OCc3cncc(C#N)c3)c(CN[C@](C)(CO)C(=O)O)cc2Cl)cccc1-c1cccc(OCCCN(C)C[C@H](O)CO)c1Cl` [Example 2024, (R)-2-((5-chloro-4-((2′-chloro-3′-(3-(((S)-2,3-dihydroxypropyl)(methyl)amino)propoxy)-2-methyl-[1,1′-biphenyl]-3-yl)methoxy)-2-((5-cyanopyridin-3-yl)methoxy)benzyl)amino)-3-hydroxy-2-methylpropanoic Acid], the IC50 lay in the range of 0.21 to 10 nM.

With `Cc1c(COc2cc(OCc3cncc(C#N)c3)c(CO)cc2Cl)cccc1-c1cccc(OCCCN(C)C[C@H](O)CO)c1Cl` [Example 2025, (S)-5-((4-chloro-5-((2′-chloro-3′-(3-((2,3-dihydroxypropyl)(methyl)amino)propoxy)-2-methyl-[1,1′-biphenyl]-3-yl)methoxy)-2-(hydroxymethyl)phenoxy)methyl)nicotinonitrile], the IC50 fell in the range of 0.21 to 10 nM.

Turning to `COC(=O)C1CCN(CCCOc2cccc(-c3cccc(COc4cc(OCc5cncc(C#N)c5)c(CNC[C@H](O)CO)cc4Cl)c3C)c2Cl)CC1` [Example 2027, (S)-methyl 1-(3-((2-chloro-3′-((2-chloro-5-((5-cyanopyridin-3-yl)methoxy)-4-(((2,3-dihydroxypropyl)amino)methyl)phenoxy)methyl)-2′-methyl-[1,1′-biphenyl]-3-yl)oxy)propyl)piperidine-4-carboxylate], the IC50 fell in the range of 0.21 to 10 nM.

Values taken from patent publication US10745382B2 (BRISTOL-MYERS SQUIBB COMPANY, priority 2015, dated 2020).
